pKi: −log10 of the molar value. Where a name gives a salt, the structure may show the parent alone. Read-outs that look alike come from different tables or passages of the source.
Tests used:
mouse TAAR1 = mouse TAAR1 (Mus musculus (Mouse), UniProt Q923Y8); experiment: Radioligand binding assay on mouse TAAR1; conditions: for Ki: read-out: Ki (μM) mouse, mouse TAAR1, membranes of HEK-293 cells, radioligand displacement
Experimental: (§1) For the generation of stably transfected cell lines HEK293 cells were transfected with the pIRESneo2 expression plasmids containing the TAAR coding sequences (described above) with Lipofectamine 2000 (Invitrogen) according to the instructions of the manufacturer, and 24 hrs post transfection the culture medium was supplemented with 1 mg/ml G418 (Sigma, Buchs, Switzerland). […] Radioligand Binding Assay on Rat TAAR1 Membrane Preparation and Radioligand Binding. […] Cells were released from culture flasks using trypsin/EDTA, harvested, washed twice with ice-cold PBS (without Ca^2+ and Mg^2+), pelleted at 1,000 rpm for 5 min at 4° C., frozen and stored at −80° C. Frozen pellets were suspended in 20 ml HEPES-NaOH (20 mM, pH 7.4) containing 10 mM EDTA and homogenized with a Polytron (PT 6000, Kinematica) at 14,000 rpm for 20 s. The homogenate was centrifuged at 48,000×g for 30 min at 4° C. Subsequently, the supernatant was removed and discarded, and the pellet resuspended in 20 ml HEPES-NaOH (20 mM, pH 7.4) containing 0.1 mM EDTA using the Polytron (20 s at 14,000 rpm). This procedure was repeated and the final pellet resuspended in HEPES-NaOH containing 0.1 mM EDTA and homogenized using the Polytron. Typically, aliquots of 2 ml membrane portions were stored at −80° C. With each new membrane batch the dissociation constant (Kd) was determined via a saturation curve. […] Nonspecific binding was defined as the amount of ^3[H]-(S)-4-[(ethyl-phenyl-amino)-methyl]-4,5-dihydro-oxazol-2-ylamine bound in the presence of 10 μM unlabeled ligand. All compounds were tested at a broad range of concentrations (10 pM to 10 μM) in duplicates. […] The 96 deep well plates were incubated for 1 hr at 4° C. Incubations were terminated by rapid filtration through Unifilter-96 plates (Packard Instrument Company) and glass filters GF/C (Perkin Elmer) presoaked for 1 hr in polyethylenimine (0.3%) and washed 3 times with 1 ml of cold binding buffer. After addition of 45 μl of Microscint 40 (PerkinElmer) the Unifilter-96 plate was sealed and after 1 hr the radioactivity counted using a TopCount Microplate Scintillation Counter (Packard Instrument Company). Radioligand Binding Assay on Mouse TAAR1 Membrane Preparation and Radioligand Binding. […] Cells were released from culture flasks using trypsin/EDTA, harvested, washed twice with ice-cold PBS (without Ca^2+ and Mg^2+), pelleted at 1,000 rpm for 5 min at 4° C., frozen and stored at −80° C. Frozen pellets were suspended in 20 ml HEPES-NaOH (20 mM, pH 7.4) containing 10 mM EDTA and homogenized with a Polytron (PT 6000, Kinematica) at 14,000 rpm for 20 s. The homogenate was centrifuged at 48,000×g for 30 min at 4° C. Subsequently, the supernatant was removed and discarded, and the pellet resuspended in 20 ml HEPES-NaOH (20 mM, pH 7.4) containing 0.1 mM EDTA using the Polytron (20 s at 14,000 rpm). This procedure was repeated and the final pellet resuspended in HEPES-NaOH containing 0.1 mM EDTA and homogenized using the Polytron. Typically, aliquots of 2 ml membrane portions were stored at −80° C. With each new membrane batch the dissociation constant (Kd) was determined via a saturation curve.

rat TAAR1 = rat TAAR1 (Rattus norvegicus (Rat), UniProt Q923Y9); experiment: Radioligand binding assay on rat TAAR1; conditions: for Ki: read-out: Ki (μM) rat, rat TAAR1, membranes of HEK-293 cells, radioligand displacement;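 as to all read-outs here: stably transfected HEK293 cell membranes with a tritiated radioligand, 1 h incubation at 4 °C, nonspecific binding taken as binding with 10 µM unlabeled ligand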
rat TAAR1, sequence (Q923Y9 whole entry): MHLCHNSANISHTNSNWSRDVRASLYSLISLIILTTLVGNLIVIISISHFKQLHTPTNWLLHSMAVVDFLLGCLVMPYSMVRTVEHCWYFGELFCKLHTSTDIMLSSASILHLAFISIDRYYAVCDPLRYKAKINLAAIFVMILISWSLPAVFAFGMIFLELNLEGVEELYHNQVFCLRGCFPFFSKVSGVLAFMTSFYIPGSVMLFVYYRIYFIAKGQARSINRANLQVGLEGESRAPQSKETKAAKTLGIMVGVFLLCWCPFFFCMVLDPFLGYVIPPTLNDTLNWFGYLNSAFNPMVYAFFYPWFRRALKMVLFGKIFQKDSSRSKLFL
Experimental: as §1

mouse TAAR1, sequence (Q923Y8 whole entry): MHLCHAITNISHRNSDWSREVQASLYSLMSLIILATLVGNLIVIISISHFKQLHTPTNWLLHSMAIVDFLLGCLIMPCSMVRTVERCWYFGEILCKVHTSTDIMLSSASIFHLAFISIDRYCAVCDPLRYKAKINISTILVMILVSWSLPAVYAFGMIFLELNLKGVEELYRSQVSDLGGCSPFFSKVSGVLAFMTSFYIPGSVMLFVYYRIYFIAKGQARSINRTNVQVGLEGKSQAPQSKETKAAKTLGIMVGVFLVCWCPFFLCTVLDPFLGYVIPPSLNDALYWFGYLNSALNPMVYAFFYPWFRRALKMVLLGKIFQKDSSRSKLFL

Row | Ki (mouse TAAR1) [µM] | Ki (rat TAAR1) [µM] | Compound | pKi (mouse TAAR1) | pKi (rat TAAR1)
1 | 0.0135 | 0.016 | O=C(Nc1ccc([C@H]2CNCCO2)cc1)c1cnn(-c2ncc(C(F)(F)F)cc2F)c1 [Example 19, (S)-1-(3-fluoro-5-(trifluoromethyl)pyridin-2-yl)-N-(4-(morpholin-2-yl)phenyl)-1H-pyrazole-4-carboxamide hydrochloride] |  | 
2 | 0.0041 | 0.0059 | O=C(Nc1ccc([C@H]2CNCCO2)cc1)c1cnn(-c2ccnc(Cl)c2)c1 [Example 20, (S)-1-(2-chloropyridin-4-yl)-N-(4-(morpholin-2-yl)phenyl)-1H-pyrazole-4-carboxamide hydrochloride] |  | 
3 | 0.0017 | 0.004 | O=C(Nc1ccc([C@H]2CNCCO2)cc1)c1cnn(-c2ccc(OC(F)F)cc2)c1 [Example 21, (S)-1-(4-(difluoromethoxy)phenyl)-N-(4-(morpholin-2-yl)phenyl)-1H-pyrazole-4-carboxamide hydrochloride] |  | 
4 | 0.001 | 0.0014 | O=C(Nc1ccc([C@H]2CNCCO2)cc1)c1cnn(-c2cccc(OC(F)F)c2)c1 [Example 22, (S)-1-(3-(difluoromethoxy)phenyl)-N-(4-(morpholin-2-yl)phenyl)-1H-pyrazole-4-carboxamide hydrochloride] |  | 
5 | 0.0175 | 0.0154 | N#Cc1ccc(-n2cc(C(=O)Nc3ccc([C@H]4CNCCO4)cc3)cn2)cc1F [Example 24, (S)-1-(4-cyano-3-fluorophenyl)-N-(4-(morpholin-2-yl)phenyl)-1H-pyrazole-4-carboxamide hydrochloride] |  | 
6 | 0.0007 | 0.0005 | O=C(Nc1ccc([C@H]2CNCCO2)cc1)c1cnn(-c2ccc(OC(F)(F)F)cc2)c1 [Example 26, (S)—N-(4-(morpholin-2-yl)phenyl)-1-(4-(trifluoromethoxy)phenyl)-1H-pyrazole-4-carboxamide hydrochloride] |  | 
7 | 0.0013 | 0.001 | O=C(Nc1ccc([C@@H]2CNCCO2)cc1)c1cnn(-c2ccc(OC(F)F)cc2)c1 [Example 27, (R)-1-(4-(difluoromethoxy)phenyl)-N-(4-(morpholin-2-yl)phenyl)-1H-pyrazole-4-carboxamide hydrochloride] |  | 
8 | 0.0008 | 0.0022 | CCOc1cccc(-n2cc(C(=O)Nc3ccc([C@H]4CNCCO4)cc3)cn2)n1 [Example 28, (S)-1-(6-ethoxypyridin-2-yl)-N-(4-(morpholin-2-yl)phenyl)-1H-pyrazole-4-carboxamide hydrochloride] |  | 
9 | 0.0166 | 0.135 | O=C(Nc1ccc([C@H]2CNCCO2)cc1)c1cnn(-c2ncc(Cl)cn2)c1 [Example 30, (S)-1-(5-chloropyrimidin-2-yl)-N-(4-(morpholin-2-yl)phenyl)-1H-pyrazole-4-carboxamide hydrochloride] |  | 
10 | 0.0013 | 0.045 | Cc1c(C(=O)Nc2ccc([C@H]3CNCCO3)cc2)cnn1-c1ccc(OC(F)F)cc1 [Example 31, (S)-1-(4-(difluoromethoxy)phenyl)-5-methyl-N-(4-(morpholin-2-yl)phenyl)-1H-pyrazole-4-carboxamide hydrochloride] |  | 

The next lines start with the compound.

Row | Compound | Ki (mouse TAAR1) [µM] | Ki (rat TAAR1) [µM] | pKi (mouse TAAR1) | pKi (rat TAAR1)
11 | O=C(Nc1ccc(C2CCNC2)cc1)c1cnn(-c2ccc(OC(F)F)cc2)c1 (racemic) [Example 54, (RS)-1-(4-difluoromethoxy-phenyl)-1H-pyrazole-4-carboxylic acid (4-pyrrolidin-3-yl-phenyl)-amide] |  |  | 8.80 | 8.96
12 | O=C(Nc1ccc(C2CCCNC2)cc1)c1cnn(-c2ccc(OC(F)F)cc2)c1 (racemic) [Example 55, (RS)-1-(4-difluoromethoxy-phenyl)-1H-pyrazole-4-carboxylic acid (4-piperidin-3-yl-phenyl)-amide hydrochloride] |  |  | 8.70 | 8.52
13 | Cc1c(C(=O)Nc2ccc([C@H]3CNCCO3)cc2)cnn1-c1ccccc1 [Example 1, (S)-5-methyl-N-(4-(morpholin-2-yl)phenyl)-1-phenyl-1H-pyrazole-4-carboxamide hydrochloride] | 0.0086 | 0.229 |  | 
14 | Nc1c(C(=O)Nc2ccc([C@H]3CNCCO3)cc2)cnn1-c1ccc(F)cc1 [Example 2, (S)-5-amino-1-(4-fluorophenyl)-N-(4-(morpholin-2-yl)phenyl)-1H-pyrazole-4-carboxamide dihydrochloride] | 0.0144 | 0.401 |  | 
15 | COc1ccc(-n2cc(C(=O)Nc3ccc([C@H]4CNCCO4)cc3)cn2)cc1 [Example 3, (S)-1-(4-methoxyphenyl)-N-(4-(morpholin-2-yl)phenyl)-1H-pyrazole-4-carboxamide hydrochloride] | 0.0025 | 0.0165 |  | 
16 | O=C(Nc1ccc([C@H]2CNCCO2)cc1)c1cnn(-c2ccc(F)cc2)c1 [Example 4, (S)-1-(4-fluorophenyl)-N-(4-(morpholin-2-yl)phenyl)-1H-pyrazole-4-carboxamide hydrochloride] | 0.0007 | 0.0033 |  | 
17 | O=C(Nc1ccc([C@H]2CNCCO2)cc1)c1cnn(-c2cccc(F)c2)c1 [Example 5, (S)-1-(3-fluorophenyl)-N-(4-(morpholin-2-yl)phenyl)-1H-pyrazole-4-carboxamide hydrochloride] | 0.0015 | 0.0039 |  | 
18 | N#Cc1ccc(-n2cc(C(=O)Nc3ccc([C@H]4CNCCO4)cc3)cn2)cc1 [Example 6, (S)-1-(4-cyanophenyl)-N-(4-(morpholin-2-yl)phenyl)-1H-pyrazole-4-carboxamide hydrochloride] | 0.0028 | 0.007 |  | 
19 | O=C(Nc1ccc([C@H]2CNCCO2)cc1)c1cnn(-c2ccc(Cl)cn2)c1 [Example 7, (S)-1-(5-chloropyridin-2-yl)-N-(4-(morpholin-2-yl)phenyl)-1H-pyrazole-4-carboxamide hydrochloride] | 0.0016 | 0.0046 |  | 
20 | N#Cc1ccc(-n2cc(C(=O)Nc3ccc([C@H]4CNCCO4)cc3)cn2)nc1 [Example 8, (S)-1-(5-cyanopyridin-2-yl)-N-(4-(morpholin-2-yl)phenyl)-1H-pyrazole-4-carboxamide hydrochloride] | 0.0089 | 0.0147 |  | 
21 | O=C(Nc1ccc([C@H]2CNCCO2)cc1)c1cnn(-c2ccc(Br)cn2)c1 [Example 9, (S)-1-(5-bromopyridin-2-yl)-N-(4-(morpholin-2-yl)phenyl)-1H-pyrazole-4-carboxamide hydrochloride] | 0.0017 | 0.0043 |  | 
22 | O=C(Nc1ccc([C@H]2CNCCO2)cc1)c1cnn(-c2ccc(I)cn2)c1 [Example 10, (S)-1-(5-iodopyridin-2-yl)-N-(4-(morpholin-2-yl)phenyl)-1H-pyrazole-4-carboxamide hydrochloride] | 0.0012 | 0.0041 |  | 
23 | O=C(Nc1ccc([C@H]2CNCCO2)cc1)c1cnn(-c2ccc(C(F)(F)F)cn2)c1 [Example 11, (S)—N-(4-(morpholin-2-yl)phenyl)-1-(5-(trifluoromethyl)pyridin-2-yl)-1H-pyrazole-4-carboxamide hydrochloride] | 0.0023 | 0.0023 |  | 
24 | O=C(Nc1ccc([C@@H]2CNCCO2)cc1)c1cnn(-c2ccc(F)cc2)c1 [Example 12, (R)-1-(4-fluorophenyl)-N-(4-(morpholin-2-yl)phenyl)-1H-pyrazole-4-carboxamide hydrochloride] | 0.0012 | 0.0011 |  | 
25 | N#Cc1cccc(-n2cc(C(=O)Nc3ccc([C@H]4CNCCO4)cc3)cn2)c1 [Example 13, (S)-1-(3-cyanophenyl)-N-(4-(morpholin-2-yl)phenyl)-1H-pyrazole-4-carboxamide hydrochloride] | 0.0023 | 0.0072 |  | 
26 | O=C(Nc1ccc([C@H]2CNCCO2)cc1)c1cnn(-c2cc(C(F)(F)F)ccn2)c1 [Example 14, (S)—N-(4-(morpholin-2-yl)phenyl)-1-(4-(trifluoromethyl)pyridin-2-yl)-1H-pyrazole-4-carboxamide hydrochloride] | 0.0013 | 0.0019 |  | 
27 | O=C(Nc1ccc([C@H]2CNCCO2)cc1)c1cnn(-c2cc(Cl)ccn2)c1 [Example 15, (S)-1-(4-chloropyridin-2-yl)-N-(4-(morpholin-2-yl)phenyl)-1H-pyrazole-4-carboxamide hydrochloride] | 0.0016 | 0.0036 |  | 
28 | O=C(Nc1ccc([C@H]2CNCCO2)cc1)c1cnn(-c2ccnc(Br)c2)c1 [Example 16, (S)-1-(2-bromopyridin-4-yl)-N-(4-(morpholin-2-yl)phenyl)-1H-pyrazole-4-carboxamide hydrochloride] | 0.0035 | 0.0029 |  | 
29 | N#Cc1cc(Br)ccc1-n1cc(C(=O)Nc2ccc([C@H]3CNCCO3)cc2)cn1 [Example 17, (S)-1-(4-bromo-2-cyanophenyl)-N-(4-(morpholin-2-yl)phenyl)-1H-pyrazole-4-carboxamide hydrochloride] | 0.0021 | 0.0015 |  | 
30 | COc1cccc(-n2cc(C(=O)Nc3ccc([C@H]4CNCCO4)cc3)cn2)n1 [Example 18, (S)-1-(6-methoxypyridin-2-yl)-N-(4-(morpholin-2-yl)phenyl)-1H-pyrazole-4-carboxamide hydrochloride] | 0.001 | 0.0029 |  | 
31 | N#Cc1ccc(-n2cc(C(=O)Nc3ccc([C@H]4CNCCO4)cc3)cn2)c(F)c1 [Example 23, (S)-1-(4-cyano-2-fluorophenyl)-N-(4-(morpholin-2-yl)phenyl)-1H-pyrazole-4-carboxamide hydrochloride] | 0.0041 | 0.007 |  | 
32 | N#Cc1cc(F)ccc1-n1cc(C(=O)Nc2ccc([C@H]3CNCCO3)cc2)cn1 [Example 25, (S)-1-(2-cyano-4-fluorophenyl)-N-(4-(morpholin-2-yl)phenyl)-1H-pyrazole-4-carboxamide hydrochloride] | 0.0082 | 0.0078 |  | 
33 | O=C(Nc1ccc([C@H]2CNCCO2)cc1)c1cnn(-c2ccc3c(c2)OC(F)(F)O3)c1 [Example 29, (S)-1-(2,2-difluorobenzo[d][1,3]dioxol-5-yl)-N-(4-(morpholin-2-yl)phenyl)-1H-pyrazole-4-carboxamide hydrochloride] | 0.0023 | 0.0014 |  | 
